Patent US20230390274A1 (EPIRIUM BIO INC., priority 2020, published 2023)

Each compound was assayed against 15-PGDH/HPGD (Homo sapiens (Human), UniProt P15428) (assay: hPGDH inhibitor screening biochemical assay). Details: 10 nM 15-PGDH/HPGD, 15 μM PGE2, 0.25 mM NAD; read-out: hPGDH: Average IC50.
15-PGDH/HPGD, sequence (P15428 whole entry): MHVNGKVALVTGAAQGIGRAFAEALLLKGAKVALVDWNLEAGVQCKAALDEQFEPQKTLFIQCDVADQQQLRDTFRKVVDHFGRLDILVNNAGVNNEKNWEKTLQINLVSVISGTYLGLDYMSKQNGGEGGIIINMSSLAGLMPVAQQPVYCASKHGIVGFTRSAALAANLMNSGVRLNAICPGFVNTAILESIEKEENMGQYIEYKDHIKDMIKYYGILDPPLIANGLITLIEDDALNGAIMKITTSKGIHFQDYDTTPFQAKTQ
Description: A hydroxyprostaglandin dehydrogenase inhibition screening biochemical assay can be performed to assess the synthesized inhibitors provided herein. Provided herein is an exemplary biochemical assay for hPGDH inhibitor screening.
The in vitro biochemical assay can be performed in white, 384 plates in total 20 μl reaction volume consisting of 10 nM of 15-PGDH/HPGD (R&D System #5660-DH), 15 μM Prostaglandin E2 (Sigma, Cat #P5640-10MG) and 0.25 mM β-Nicotinamide adenine dinucleotide sodium salt (Sigma, Cat #N0632-5G) made in reaction buffer (50 mM Tris-HCl, pH 7.5, 0.01% Tween 20) at 10-point dose response curve for test/tool compounds. Briefly, 5 μl (4×) of compounds solution and 5 μl (final concentration, 10 nM) of enzyme solution is added to white 384 well plates and incubated for 10 mins at 37° C. 5 μl (4×) of Prostaglandin E2 and 5 μl (4×) of β-Nicotinamide adenine dinucleotide sodium salt is added to the wells and incubated for 10 mins at rt. Fluorescence is recorded at ex/em=340 nm/485 nm. The percentage (%) inhibition of enzyme activity was determined relative to […] (1% DMSO) and IC50 was calculated using GraphPad prism software (four parameter-variable slope equation).
Work on N#Cc1ccc(-n2ccc3cc(C(=O)N4CC[C@H](F)C4)cnc32)cc1 (single isomer, unassigned) [A-340] yielded an IC50 of less than 100 nM. For N#Cc1ccc(-n2ccc3cc(C(=O)N4CC[C@@H](F)C4)cnc32)cc1 (single isomer, unassigned) [A-341], the IC50 was less than 100 nM. O=C(c1ccc2c(c1)ncn2-c1cccc(Cl)c1)N1CC2CCCC2C1 (stereo not shown) [A-1] was tested, and the IC50 was less than 100 nM. With O=C(c1ccc2c(c1)ncn2-c1cccc(Cl)c1)N1CCCCCC1 [A-2] the IC50 was less than 100 nM. O=C(c1ccc2c(c1)ncn2-c1cccc(Cl)c1)N1CC2CCC(C2)C1 [A-4] gave an IC50 of less than 100 nM. O=C(c1ccc2c(c1)ncn2-c1cccc(Cl)c1)N1CC2(CCC2)C1 [A-5] was tested, and the IC50 was less than 100 nM. O=C(c1ccc2c(c1)ncn2-c1cccc(Cl)c1)N1CCCCC1 [A-6] was tested, and the IC50 was less than 100 nM. In the case of O=C(c1ccc2c(c1)ncn2-c1cccc(Cl)c1)N1CCC(F)(F)CC1 [A-8], the IC50 is reported as less than 100 nM. Work on O=C(c1ccc2c(c1)ncn2-c1cccc(Cl)c1)N1CCC(F)(F)C1 [A-10] yielded an IC50 of no less than 1000 nM. For O=C(c1ccc2c(c1)ncn2-c1cccc(Cl)c1)N1CCC(Cl)C1 (stereo not shown) [A-12], the IC50 was less than 100 nM. For O=C(c1ccc2c(c1)ncn2-c1cccc(Cl)c1)N1CCC(O)C1 (stereo not shown) [A-13], the IC50 was no less than 1000 nM. With O=C(Nc1ccccc1)c1ccc2c(c1)ncn2-c1cccc(Cl)c1 [A-16] the IC50 was no less than 1000 nM. O=C(c1ccc2c(c1)ncn2-c1cccc(Cl)c1)N1CC(F)C1 [A-20] showed an IC50 of less than 100 nM. In the case of O=C(c1ccc2c(c1)ncn2-c1cccc(Cl)c1)N1CC(Cl)C1 [A-21], the IC50 is reported as less than 100 nM. CN(C(=O)c1ccc2c(c1)ncn2-c1cccc(Cl)c1)C1CC1 [A-23, 1-(3-chlorophenyl)-N-cyclopropyl-N-methyl-1H-benzo[d]imidazole-5-carboxamide] showed an IC50 of no less than 1000 nM. O=C1CCN(C(=O)c2ccc3c(c2)ncn3-c2cccc(Cl)c2)C1 [A-24, 1-(1-(3-chlorophenyl)-1H-benzo[d]imidazole-5-carbonyl)pyrrolidin-3-one] gave an IC50 of no less than 1000 nM. With CCOC(=O)c1nc2cc(C(=O)N3CCCCC3)ccc2n1-c1cccc(Cl)c1 [A-26] the IC50 was less than 100 nM. Work on CCOC(=O)Cc1nc2cc(C(=O)N3CCCCC3)ccc2n1-c1cccc(Cl)c1 [A-27] yielded an IC50 of less than 100 nM. With Cc1nc2cc(C(=O)N3CCCCC3)ccc2n1-c1cccc(Cl)c1 [A-28] the IC50 was less than 100 nM. In the case of CCOC(=O)CCc1nc2cc(C(=O)N3CCCCC3)ccc2n1-c1cccc(Cl)c1 [A-29], the IC50 is reported as less than 100 nM. O=C(O)CCc1nc2cc(C(=O)N3CCCCC3)ccc2n1-c1cccc(Cl)c1 [A-30] showed an IC50 of less than 100 nM. With NC(=O)CCc1nc2cc(C(=O)N3CCCCC3)ccc2n1-c1cccc(Cl)c1 [A-31] the IC50 was less than 100 nM. Work on COc1ccc(-n2cnc3cc(C(=O)N4CCCCC4)ccc32)cc1 [A-32] yielded an IC50 of less than 100 nM. Compound COc1ccc(-n2cnc3cc(C(=O)N4CCC(F)CC4)ccc32)cc1 [A-33] has an IC50 of less than 100 nM. For COc1ccc(-n2cnc3cc(C(=O)N4CCCCC4)ccc32)nc1 [A-35], the IC50 was less than 100 nM. In the case of COc1ccc(-n2cnc3cc(C(=O)N4CCCCC4)ccc32)cc1Cl [A-36, (1-(3-chloro-4-methoxyphenyl)-1H-benzo[d]imidazol-5-yl)(piperidin-1-yl)methanone], the IC50 is reported as less than 100 nM. O=C(c1ccc2c(c1)ncn2-c1ccc2c(c1)OCO2)N1CCCCC1 [A-37] showed an IC50 of less than 100 nM. COc1ccc(-n2cnc3cc(C(=O)N4CCC(F)CC4)ccc32)nc1 [A-38] was tested, and the IC50 was less than 100 nM. O=C(c1ccc2c(c1)ncn2-c1ccc(O)c(Cl)c1)N1CCCCC1 [A-39, (1-(3-chloro-4-hydroxyphenyl)-1H-benzo[d]imidazol-5-yl)(piperidin-1-yl)methanone] was tested, and the IC50 was less than 100 nM. Work on O=C(c1cnc2c(ccn2-c2cccc(Cl)c2)c1)N1CCCCC1 [A-40] yielded an IC50 of less than 100 nM. In the case of O=C(c1cnc2c(ccn2-c2ccccn2)c1)N1CCCCC1 [A-41], the IC50 is reported as less than 100 nM. O=C(c1cnc2c(ccn2-c2cccnc2)c1)N1CCCCC1 [A-42] was tested, and the IC50 was less than 100 nM. O=C(c1cnc2c(ccn2-c2ccncn2)c1)N1CCCCC1 [A-43] gave an IC50 of less than 100 nM. O=C(c1cnc2c(ccn2-c2cncnc2)c1)N1CCCCC1 [A-44] showed an IC50 of less than 100 nM. O=C(c1cnc2c(ccn2-c2cnccn2)c1)N1CCCCC1 [A-45] gave an IC50 of less than 100 nM. In the case of O=C(c1cnc2c(ccn2-c2cscn2)c1)N1CCCCC1 [A-47], the IC50 is reported as less than 100 nM. With O=C(c1cnc2c(ccn2-c2cn[nH]c2)c1)N1CCCCC1 [A-48] the IC50 was less than 100 nM. Cn1cc(-n2ccc3cc(C(=O)N4CCCCC4)cnc32)cn1 [A-49] gave an IC50 of less than 100 nM. O=C(c1cnc2c(ccn2-c2cnccn2)c1)N1CCC(F)CC1 [A-50] showed an IC50 of less than 100 nM. O=C(c1cnc2c(ccn2-c2ccncn2)c1)N1CCC(F)CC1 [A-53] was tested, and the IC50 was less than 100 nM. Work on O=C(c1cnc2c(ccn2-c2ccc(O)nc2)c1)N1CCC(F)CC1 [A-55] yielded an IC50 of less than 100 nM. In the case of O=C(c1cnc2c(ccn2-c2cccnc2)c1)N1CCC(F)CC1 [A-56], the IC50 is reported as less than 100 nM. Compound O=C(c1cnc2c(c1)c(Cl)cn2-c1cccnc1)N1CCC(F)CC1 [A-57] has an IC50 of less than 100 nM. With Cn1cc(-n2ccc3cc(C(=O)N4CCC(F)CC4)cnc32)cn1 [A-58] the IC50 was less than 100 nM. In the case of Cn1cc(-n2cc(Cl)c3cc(C(=O)N4CCC(F)CC4)cnc32)cn1 [A-59], the IC50 is reported as less than 100 nM. Compound O=C(c1cnc2c(c1)c(Cl)cn2-c1cncnc1)N1CCC(F)CC1 [A-60] has an IC50 of less than 100 nM. With COc1ccc(-n2ccc3cc(C(=O)N4CCC(F)CC4)cnc32)cn1 [A-61] the IC50 was less than 100 nM. O=C(c1cnc2c(c1)ncn2-c1cccc(Cl)c1)N1CCCCC1 [A-62] gave an IC50 of less than 100 nM. COc1ccc(-n2cnc3cc(C(=O)N4CCCCC4)cnc32)cc1 [A-63] was tested, and the IC50 was less than 100 nM. For COc1ccc(-n2cnc3cc(C(=O)N4CCC(F)CC4)cnc32)cc1 [A-64], the IC50 was less than 100 nM. Compound COc1ccc(-n2cnc3cc(C(=O)N4CCC(F)(F)CC4)cnc32)cc1 [A-65] has an IC50 of less than 100 nM. COc1ccc(-n2c(NC(C)=O)nc3cc(C(=O)N4CCC(F)CC4)cnc32)cc1 [A-68] gave an IC50 of no less than 1000 nM. With O=C(c1ccc(COc2ccccc2Br)cc1)N1CCCCC1 [A-69] the IC50 was less than 100 nM. O=C(c1ccc(COc2ccccc2Cl)cc1)N1CCCCC1 [A-70] was tested, and the IC50 was less than 100 nM. COc1cc(C(=O)N2CCCCC2)ccc1COc1ccccc1Cl [A-71] showed an IC50 of less than 100 nM. Work on O=C(c1ccc(CSc2ccccc2Cl)cc1)N1CCCCC1 [A-72] yielded an IC50 of less than 100 nM. Compound O=C(c1ccc(COc2ccccc2Cl)cn1)N1CCC(F)CC1 [A-76] has an IC50 of no less than 1000 nM. For O=C(c1ccc(COc2ccccc2-c2ccccn2)cc1)N1CCCCC1 [A-77], the IC50 was less than 100 nM. O=C(c1ccc(COc2ccccc2-c2cnc[nH]2)cc1)N1CCCCC1 [A-78] gave an IC50 of less than 100 nM. Compound O=C(c1ccc(COc2ccccc2-c2cncs2)cc1)N1CCCCC1 [A-79] has an IC50 of less than 100 nM. For COc1ccccc1C(=O)Nc1ccc(C(=O)N2CCCCC2)cc1 [A-80], the IC50 was less than 100 nM. COc1ccccc1C(=O)N(C)c1ccc(C(=O)N2CCCCC2)cc1 [A-81] gave an IC50 of no less than 1000 nM. Work on O=C(c1ccc2c(ccn2-c2cccc(Cl)c2)c1)N1CCCCC1 [A-87] yielded an IC50 of less than 100 nM. With O=C(c1ccc2c(c1)c(Cl)cn2-c1cccc(Cl)c1)N1CCCCC1 [A-88] the IC50 was less than 100 nM. Work on O=C(c1ccc2c(-c3cccc(Cl)c3)c[nH]c2c1)N1CCCCC1 [A-89, (3-(3-chlorophenyl)-1H-indol-6-yl)(piperidin-1-yl)methanone] yielded an IC50 of less than 100 nM. With Cn1cc(-c2cccc(Cl)c2)c2ccc(C(=O)N3CCCCC3)cc21 [A-90, (3-(3-chlorophenyl)-1-methyl-1H-indol-6-yl)(piperidin-1-yl)methanone] the IC50 was less than 100 nM. In the case of O=C(c1ccc2c(c1)CCCN2c1cccc(Cl)c1)N1CCCCC1 [A-91, (1-(3-chlorophenyl)-1,2,3,4-tetrahydroquinolin-6-yl)(piperidin-1-yl)methanone], the IC50 is reported as less than 100 nM. In the case of O=C(c1ccc2c(cnn2-c2cccc(Cl)c2)c1)N1CCCCC1 [A-93, (1-(3-chlorophenyl)-1H-indazol-5-yl)(piperidin-1-yl)methanone], the IC50 is reported as less than 100 nM. O=C(c1ccn2c(-c3cccc(Cl)c3)cnc2c1)N1CCCCC1 [A-94, (3-(3-chlorophenyl)imidazo[1,2-a]pyridin-7-yl)(piperidin-1-yl)methanone] showed an IC50 of less than 100 nM. O=C(c1ccc2c(c1)nnn2-c1cccc(Cl)c1)N1CCCCC1 [A-95, (1-(3-chlorophenyl)-1H-benzo[d][1,2,3]triazol-5-yl)(piperidin-1-yl)methanone] was tested, and the IC50 was less than 100 nM. O=C(c1cnc2c(-c3cccc(Cl)c3)cnn2c1)N1CCCCC1 [A-96, (3-(3-chlorophenyl)pyrazolo[1,5-a]pyrimidin-6-yl)(piperidin-1-yl)methanone] showed an IC50 of less than 100 nM.

Same assay, conditions: Table 1, PGDH inhibitors with a 6-5 ring core; read-out: hPGDH: IC50
Work on O=C(c1ccc2c(c1)ncn2-c1cccc(Cl)c1)N1CCC(F)C1 (stereo not shown) yielded an IC50 of 158 nM. O=C(c1ccc2c(c1)ncn2-c1cccc(Cl)c1)N1CCCC1 was tested, and the IC50 was 274 nM. With NC(=O)Cc1nc2cc(C(=O)N3CCCCC3)ccc2n1-c1cccc(Cl)c1 the IC50 was 576 nM. For O=C(c1ccc2c(c1)ncn2-c1cccc(Cl)c1)N1CC2CC2C1 (stereo not shown), the IC50 was 116 nM. For COc1ccc(-n2c(C3CC3)nc3cc(C(=O)N4CCCCC4)ccc32)cc1, the IC50 was 197 nM.

Same assay, conditions: Table 2, PGDH inhibitors with a phenyl core; read-out: hPGDH: IC50
COc1cccc(C(=O)Nc2ccc(C(=O)N3CCCCC3)cc2)c1 showed an IC50 of 135 nM. O=C(Nc1ccc(C(=O)N2CCCCC2)cc1)c1ccccc1Cl showed an IC50 of 277 nM. COc1ccccc1NC(=O)c1ccc(C(=O)N2CCCCC2)cc1 gave an IC50 of 593 nM.
